PubChem BioAssay AID1919007 (Molecular Pharmacology Branch, DTP, NCI, 2023)
pIC50: −log10 of the molar value.

Tested on: A498 complex spheroids with HUVEC/MSC, growth
Test: Anticancer human tumor A498 cell line growth inhibition [AhR];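 further: seven day exposure starting three days after spheroid seeding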;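 on viability, T/C: luminescence signal used as a surrogate for viable cells; luminescence viability scaled so 100% equals DMSO vehicle wells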
Conditions: for pIC50: curve of first compound; for viability, T/C: stronger effect = lower value
Procedure, shortened: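 Agents were dosed in half-log steps down from roughly clinical Cmax, or from 10 microM where Cmax was unknown, alone and with AhR antagonists. Read-out: percent test/control growth of tumor spheroids containing HUVEC and MSC stromal cells.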

[1] = second compound 0.1 µM, first compound 0.0316 µM
[2] = second compound 0.1 µM, first compound 0.1 µM
[3] = second compound 0.1 µM, first compound 0.316 µM
[4] = second compound 0.1 µM, first compound 1 µM
[5] = second compound 0.1 µM, first compound 3.16 µM
[6] = second compound 0.1 µM, first compound 10 µM
[7] = second compound 0.316 µM, first compound 0.0316 µM
[8] = second compound 0.316 µM, first compound 0.1 µM
[9] = second compound 0.316 µM, first compound 0.316 µM
[10] = second compound 0.316 µM, first compound 1 µM
[11] = second compound 0.316 µM, first compound 3.16 µM
[12] = second compound 0.316 µM, first compound 10 µM
[13] = second compound 1 µM, first compound 0.0316 µM
[14] = second compound 1 µM, first compound 0.1 µM
[15] = second compound 1 µM, first compound 0.316 µM
[16] = second compound 1 µM, first compound 1 µM
[17] = second compound 1 µM, first compound 3.16 µM
[18] = second compound 1 µM, first compound 10 µM
[19] = second compound 3.16 µM, first compound 0.0316 µM
[20] = second compound 3.16 µM, first compound 0.1 µM
[21] = second compound 3.16 µM, first compound 0.316 µM
[22] = second compound 3.16 µM, first compound 1 µM
[23] = second compound 3.16 µM, first compound 3.16 µM
[24] = second compound 3.16 µM, first compound 10 µM
[25] = second compound 10 µM, first compound 0.0316 µM
[26] = second compound 10 µM, first compound 0.1 µM
[27] = second compound 10 µM, first compound 0.316 µM
[28] = second compound 10 µM, first compound 1 µM
[29] = second compound 10 µM, first compound 3.16 µM
[30] = second compound 10 µM, first compound 10 µM

| Compound | pIC50 (second compound 0.1 µM) | pIC50 (second compound 0.316 µM) | pIC50 (second compound 1 µM) | pIC50 (second compound 3.16 µM) | pIC50 (second compound 10 µM) | viability, T/C [1] [%] | viability, T/C [2] [%] | viability, T/C [3] [%] | viability, T/C [4] [%] | viability, T/C [5] [%] | viability, T/C [6] [%] | viability, T/C [7] [%] | viability, T/C [8] [%] | viability, T/C [9] [%] | viability, T/C [10] [%] | viability, T/C [11] [%] | viability, T/C [12] [%] | viability, T/C [13] [%] | viability, T/C [14] [%] | viability, T/C [15] [%] | further results |
| --- | --- | --- | --- | --- | --- | --- | --- | --- | --- | --- | --- | --- | --- | --- | --- | --- | --- | --- | --- | --- | --- |
| Nc1ccccc1NC(=O)c1ccc(CNC(=O)OCc2cccnc2)cc1 + Cc1ccccc1N=Nc1ccc(NC(=O)c2ccnn2C)c(C)c1 | 5.82 | 5.78 | 5.84 | 5.92 | 5.94 | 101 | 91.4 | 82.5 | 64.6 | 26.8 | 1.44 | 123 | 92.6 | 86.5 | 72 | 28.5 | 1.77 | 103 | 96.2 | 82 | viability, T/C [16]: 61.5%; viability, T/C [17]: 27.3%; viability, T/C [18]: 1.56%; viability, T/C [19]: 89.3%; viability, T/C [20]: 91.6%; viability, T/C [21]: 74.4%; viability, T/C [22]: 54%; viability, T/C [23]: 26.9%; viability, T/C [24]: 1.8%; viability, T/C [25]: 84%; viability, T/C [26]: 80.7%; viability, T/C [27]: 67.8%; viability, T/C [28]: 53.6%; viability, T/C [29]: 29.6%; viability, T/C [30]: 1.63% |
| O=C(c1cc(Cc2n[nH]c(=O)c3ccccc23)ccc1F)N1CCN(C(=O)C2CC2)CC1 + Cc1ccccc1N=Nc1ccc(NC(=O)c2ccnn2C)c(C)c1 | < 5.00 | < 5.00 | < 5.00 | < 5.00 | < 5.00 | 90.1 | 95.2 | 90.2 | 91.9 | 92.6 | 83.5 | 96.3 | 95.9 | 95.2 | 95.1 | 88.9 | 90.4 | 84.6 | 95.7 | 91.5 | viability, T/C [16]: 81%; viability, T/C [17]: 85.7%; viability, T/C [18]: 75.9%; viability, T/C [19]: 79.5%; viability, T/C [20]: 92.7%; viability, T/C [21]: 87.6%; viability, T/C [22]: 85.5%; viability, T/C [23]: 76.6%; viability, T/C [24]: 75.8%; viability, T/C [25]: 87.3%; viability, T/C [26]: 83.4%; viability, T/C [27]: 80.3%; viability, T/C [28]: 86.5%; viability, T/C [29]: 75.9%; viability, T/C [30]: 70.6% |
